Laboratory results as given in patent US20180072997A1, “INHIBITORS OF HUMAN IMMUNODEFICIENCY VIRUS REPLICATION” (ViiV HEATHCARE UK (NO.5) LIMITED, priority 2015, published 2018).

Tests used:
[1] = tested on: recombinant NL4-3 virus (Renilla luciferase in nef) in MT-2 cells; assay: whole plant or invertebrate; format: cell-based, HIV; settings: Renilla, NL43, MT-2 cells infected for 4-5 days with recombinant NL4-3 Renilla luciferase virus; luciferase activity
Experimental: HIV cell culture assay—MT-2 cells, 293T cells and the proviral DNA clone of NL4-3 virus were obtained from the NIH AIDS Research and Reference Reagent Program. MT-2 cells were propagated in RPMI 1640 media supplemented with 10% heat inactivated fetal bovine serum (FBS), 100 μg/ml penicillin G and up to 100 units/mL streptomycin. The 293T cells were propagated in DMEM media supplemented with 10% heat inactivated FBS, 100 μg/mL penicillin G and 100 μg/mL streptomycin. A recombinant NL4-3 proviral clone, in which a section of the nef gene was replaced with the Renilla luciferase gene, was used to make the reference virus used in these studies. The recombinant virus was prepared through transfection of the recombinant NL4-3 proviral clone into 293T cells using Transit-293 Transfection Reagent from Mirus Bio LLC (Madison, Wis.). Supernatent was harvested after 2-3 days and the amount of virus present was titered in MT-2 cells using luciferase enzyme activity as a marker by measuring luciferase enzyme activity. Luciferase was quantitated using the EnduRen Live Cell Substrate from Promega (Madison, Wis.). Antiviral activities of compounds toward the recombinant virus were quantified by measuring luciferase activity in MT-2 cells infected for 4-5 days with the recombinant virus in the presence of serial dilutions of the compound.
(Johnson V A, Byington R T. Infectivity Assay. In Techniques in HIV Research. ed. Aldovini A, Walker BD. 71-76. New York: Stockton Press.1990).

[2] = Compound cytotoxicity, XTT-based colorimetric assay; format: cell-based; settings: human, uninfected MT2 cells, day 4, XTT
Experimental: Compound cytotoxicity and the corresponding CC50 values were determined using the same protocol as described in the antiviral assay except that uninfected cells were used. Cytotoxicity was assessed on day 4 in uninfected MT2 cells by using a XTT (2,3-bis[2-Methoxy-4-nitro-5-sulfophenyl]-2H-tetrazolium-5-carboxyanilide inner salt)-based colorimetric assay (Sigma-Aldrich, St Louis, Mo.).

| Compound | EC50 [1] [µM] | CC50 at 4 days [2] [µM] |
| --- | --- | --- |
| COc1ccc(N(C)C(=O)[C@H](Cc2ccccc2)NC(=O)c2cc(C(=O)N[C@@H](Cc3ccccc3)C(=O)N(C)c3ccc(OC)cc3)ncn2)cc1 [Example 112] | 1.71 | 1.3 |
| C=CCN(C(=O)[C@H](Cc1cc(F)cc(F)c1)NC(=O)NS(=O)(=O)N[C@@H](Cc1cc(F)cc(F)c1)C(=O)N(CC=C)c1ccc(OC)cc1)c1ccc(OC)cc1 [Example 120] | 0.26 | 23.3 |
| CN(C(=O)[C@H](Cc1cc(F)cc(F)c1)NC(=O)NS(=O)(=O)N[C@@H](Cc1cc(F)cc(F)c1)C(=O)N(C)c1ccc(Cl)cc1)c1ccc(Cl)cc1 [Example 165] | 0.04 | 30.3 |
| COc1ccc(N(C)C(=O)[C@H](Cc2cc(F)cc(F)c2)NC(=O)c2cc(F)c(F)cc2C(=O)N[C@@H](Cc2cc(F)cc(F)c2)C(=O)N(C)c2ccc(OC)cc2)cc1 [Example 254] | 0.09 | 10 |
| COc1ccc(N(C)C(=O)[C@H](Cc2ccccc2)NC(=O)NS(=O)(=O)N[C@@H](Cc2ccccc2)C(=O)N(C)c2ccc3c(c2)OCO3)cc1 [Example 14] | 0.08 | ≥ 50 |
| COc1ccc(N(C)C(=O)[C@H](Cc2ccccc2)NC(=O)NS(=O)(=O)N[C@@H](Cc2ccccc2)c2nnc(SC)o2)cc1 [Example 6] | 6.78 | ≥ 100 |
| COc1ccc(N(C)C(=O)[C@H](Cc2ccccc2)NC(=O)Cn2c(=O)n(CC(=O)N[C@@H](Cc3ccccc3)C(=O)N(C)c3ccc(OC)cc3)c3ccccc32)cc1 [Example 37] | 0.07 | 19.9 |
| COc1ccc(N(C)C(=O)[C@H](Cc2ccccc2)NC(=O)Cn2c(=O)c3ccccc3c(=O)n2CC(=O)N[C@@H](Cc2ccccc2)C(=O)N(C)c2ccc(OC)cc2)cc1 [Example 92] | 0.29 | 10.1 |
| COc1ccc(N(C)C(=O)[C@H](Cc2ccccc2)NC(=O)[C@H](Cc2ccccc2)NC(=O)N[C@@H](Cc2ccccc2)C(=O)N[C@@H](Cc2ccccc2)C(=O)N(C)c2ccc(OC)cc2)cc1 [Example 62] | 0.49 | ≥ 100 |
| COc1ccc(N(C)C(=O)[C@H](Cc2ccccc2)NC(=O)c2ccccc2-c2ccccc2C(=O)N[C@@H](Cc2ccccc2)C(=O)N(C)c2ccc(OC)cc2)cc1 [Example 79] | 1.4 | ≥ 100 |
| COc1ccc(N(C)C(=O)[C@H](Cc2ccccc2)NC(=O)Cn2c(=O)n(CC(=O)N[C@@H](Cc3ccccc3)C(=O)N(C)c3ccc(OC)cc3)c3c(Cl)cccc32)cc1 [Example 73] | 0.07 | 39.9 |
| C=CCN(C(=O)[C@H](Cc1cc(F)cc(F)c1)NS(=O)(=O)CCCS(=O)(=O)N[C@@H](Cc1cc(F)cc(F)c1)C(=O)N(CC=C)c1ccc(OC)cc1)c1ccc(OC)cc1 [Example 164] | 2.64 | ≥ 100 |
| COc1ccc(N(C)C(=O)[C@H](Cc2ccccc2)NC(=O)CCC(=O)N[C@@H](Cc2ccccc2)C(=O)N(C)c2ccc(OC)cc2)cc1 [Example 21] | 3.25 | 27 |
| COc1ccc(N(C)C(=O)[C@H](Cc2cc(F)cc(F)c2)NC(=O)NS(=O)(=O)N[C@@H](Cc2cc(F)cc(F)c2)C(=O)N(C)c2ccc(OC)c(F)c2)cc1F [Example 233] | 0.03 | 35.8 |
| COc1ccc(N(C)C(=O)[C@H](Cc2ccccc2)NC(=O)CN(CCO)CC(=O)N[C@@H](Cc2ccccc2)C(=O)N(C)c2ccc(OC)cc2)cc1 [Example 29] | 2.49 | 31.8 |
| Cc1ncc(N(C)C(=O)[C@H](Cc2cc(F)cc(F)c2)NC(=O)NS(=O)(=O)N[C@@H](Cc2cc(F)cc(F)c2)C(=O)N(C)c2cnc(C)nc2)cn1 [Example 207] | 25 | ≥ 25 |
| COc1ccc(N(C)C(=O)[C@H](Cc2ccccc2)NC(=O)Cn2c(=O)n(CC(=O)N[C@@H](Cc3ccccc3)C(=O)N(C)c3ccc(OC)cc3)c3cc(NC(C)=O)ccc32)cc1 [Example 97] | 2.6 | ≥ 100 |
| Cc1nc2c(F)c(N(C)C(=O)[C@H](Cc3cc(F)cc(F)c3)NC(=O)NS(=O)(=O)N[C@@H](Cc3cc(F)cc(F)c3)C(=O)N(C)c3ccc4sc(C)nc4c3F)ccc2s1 [Example 239] | 0.86 | ≥ 100 |
| CN(C(=O)[C@H](Cc1cc(F)cc(F)c1)NC(=O)NS(=O)(=O)N[C@@H](Cc1cc(F)cc(F)c1)C(=O)N(C)c1ccc(OC(F)F)nc1)c1ccc(OC(F)F)nc1 [Example 214] | 0.01 | 43.8 |

| Compound | EC50 [1] [µM] | CC50 at 4 days [2] [µM] |
| --- | --- | --- |
| Cc1nc2cc(N(C)C(=O)[C@H](Cc3cc(F)cc(F)c3)NC(=O)NS(=O)(=O)N[C@@H](Cc3cc(F)cc(F)c3)C(=O)N(C)c3ccc4sc(C)nc4c3)ccc2s1 [Example 151] | 0.19 | 33.4 |
| CCCc1ccc(N(C)C(=O)[C@H](Cc2cc(F)cc(F)c2)NC(=O)NS(=O)(=O)N[C@@H](Cc2cc(F)cc(F)c2)C(=O)N(C)c2ccc(CCC)cc2)cc1 [Example 182B] | 0.02 | 13.4 |
| COc1ccc(N(C)C(=O)[C@H](Cc2ccccc2)NC(=O)NS(=O)(=O)N[C@@H](Cc2ccccc2)C(=O)N2CCCC2)cc1 [Example 8] | 2.04 | ≥ 33.3 |
| C=CCCN(C(=O)[C@H](Cc1cc(F)cc(F)c1)NC(=O)NS(=O)(=O)N[C@@H](Cc1cc(F)cc(F)c1)C(=O)N(CCC=C)c1ccc(OC)cc1)c1ccc(OC)cc1 [Example 121] | 0.73 | 18.8 |
| CN(C(=O)[C@H](Cc1cc(F)cc(F)c1)NC(=O)/C=C\C(=O)N[C@@H](Cc1cc(F)cc(F)c1)C(=O)N(C)c1ccc2scnc2c1)c1ccc2scnc2c1 [Example 128] | 0.08 | 12.6 |
| CN(C(=O)[C@H](Cc1ccccc1)NC(=O)NS(=O)(=O)N[C@@H](Cc1ccccc1)C(=O)N(C)c1ccc2c(c1)OCO2)c1ccc2c(c1)OCO2 [Example 19] | 0.17 | 99.5 |
| COc1ccc(N(C)C(=O)[C@H](Cc2ccccc2)NC(=O)c2cc(C(=O)N[C@@H](Cc3ccccc3)C(=O)N(C)c3ccc(OC)cc3)on2)cc1 [Example 116] | 0.71 | 1.5 |
| COc1ccc(N(C)C(=O)[C@H](Cc2cc(F)cc(F)c2)NC(=O)Cn2c(=O)n(CC(=O)N[C@@H](Cc3cc(F)cc(F)c3)C(=O)N(C)c3ccc(OC)cc3)c3cc(OC)ccc32)cc1 [Example 84] | 0.04 | 6.9 |
| CN(C(=O)[C@H](Cc1cc(F)cc(F)c1)NC(=O)NS(=O)(=O)N[C@@H](Cc1cc(F)cc(F)c1)C(=O)N(C)c1ccc(N2CCOCC2)cc1)c1ccc(N2CCOCC2)cc1 [Example 183] | 0.09 | 78.9 |
| CN(C(=O)[C@H](Cc1ccccc1)Nc1nccc(-c2ccnc(N[C@@H](Cc3ccccc3)C(=O)N(C)c3ccc4scnc4c3)n2)n1)c1ccc2scnc2c1 [Example 135] | 0.09 | 0.5 |
| COc1ccc(N(C)C(=O)[C@H](Cc2cc(F)cc(F)c2)Nc2ccnc(N[C@@H](Cc3cc(F)cc(F)c3)C(=O)N(C)c3ccc(OC)cc3)n2)cc1 [Example 158] | 9.53 | 12.4 |
| CCc1ncc(N(C)C(=O)[C@H](Cc2cc(F)cc(F)c2)NC(=O)c2ccc(F)c(C(=O)N[C@@H](Cc3cc(F)cc(F)c3)C(=O)N(C)c3cnc(CC)nc3)c2)cn1 [Example 206] | 14.5 | ≥ 33.3 |
| COc1ccc(N(C)C(=O)[C@H](Cc2ccccc2)NC(=O)C(C)n2c(=O)n(C(C)C(=O)N[C@@H](Cc3ccccc3)C(=O)N(C)c3ccc(OC)cc3)c3ccccc32)cc1 (single isomer, unassigned) [Example 131] | 0.49 | 6.3 |
| C=CCN(C(=O)[C@H](Cc1cc(F)cc(F)c1)NC(=O)c1ccc(F)c(C(=O)N[C@@H](Cc2cc(F)cc(F)c2)C(=O)N(CC=C)c2ccc(OC)cc2)c1)c1ccc(OC)cc1 [Example 139] | 0.04 | ≥ 33.3 |
| COc1ccc(N(C)C(=O)[C@H](Cc2ccccc2)NC(=O)Cc2ccccc2CC(=O)N[C@@H](Cc2ccccc2)C(=O)N(C)c2ccc(OC)cc2)cc1 [Example 38] | 0.55 | 45 |
| CN(C(=O)[C@H](Cc1cc(F)cc(F)c1)NC(=O)NS(=O)(=O)N[C@@H](Cc1cc(F)cc(F)c1)C(=O)N(C)c1cccnc1)c1cccnc1 [Example 236] | 4.14 | ≥ 100 |
| COc1ccc(-n2ccnc2[C@H](Cc2ccccc2)NC(=O)c2cccc(C(=O)N[C@@H](Cc3ccccc3)c3nccn3-c3ccc(OC)cc3)c2)cc1 [Example 161] | 2.8 | 73.9 |
| CC#CCN(C(=O)[C@H](Cc1cc(F)cc(F)c1)NC(=O)c1cc(F)c(F)cc1C(=O)N[C@@H](Cc1cc(F)cc(F)c1)C(=O)N(CC#CC)c1ccc(OC)cc1)c1ccc(OC)cc1 [Example 234] | 6.83 | 95.3 |
| COc1ccc(N(C)C(=O)[C@H](Cc2ccccc2)NC(=O)Cn2c(=O)c3ccccc3n(CC(=O)N[C@@H](Cc3ccccc3)C(=O)N(C)c3ccc(OC)cc3)c2=O)cc1 [Example 100] | 0.07 | ≥ 100 |
